# Measured values reported in patent US20230053540A1, “TREATMENT OF LIVER INJURY” (Massachusetts Institute of Technology, priority 2019, published 2023).
# System: hepatocytes
# Assay: Seq-Well scRNA-Seq of hepatocytes after APAP overdose (signature scores, DEG vs untreated)
# Type: in vivo, mouse
# [1] = A48 (48 h post-APAP) vs other clusters, Wilcox
# [2] = A48 (APAP 48 h) vs untreated (UT) hepatocytes
structure (smiles),measurement,setting,value
"CC(=O)Nc1ccc(O)cc1 [APAP, acetaminophen]",avg_logFC Ssr3,A24 vs untreated (UT),0.5218
same,avg_logFC Stard4,A24 vs untreated (UT),0.3515
same,avg_logFC Steap4,A24 vs untreated (UT),0.476
same,avg_logFC Tmed7,A24 vs untreated (UT),0.3868
same,avg_logFC Tmem30a,A24 vs untreated (UT),0.3328
same,avg_logFC Tmem205,A24 vs untreated (UT),−0.4721
same,avg_logFC Tram1,A24 vs untreated (UT),0.4111
same,avg_logFC Trp53inp1,A24 vs untreated (UT),0.368
same,avg_logFC Ubc,A24 vs untreated (UT),−0.3705
same,avg_logFC Ugt2a3,A24 vs untreated (UT),−0.3334
same,avg_logFC Ugt2b1,A24 vs untreated (UT),−0.2895
same,avg_logFC Ugt2b5,A24 vs untreated (UT),−0.5765
same,avg_logFC Ugt2b36,A24 vs untreated (UT),−0.3293
same,avg_logFC Uqcrq,A24 vs untreated (UT),−0.5959
same,avg_logFC Uso1,A24 vs untreated (UT),0.3881
same,avg_logFC Usp4,A24 vs untreated (UT),0.3247
same,avg_logFC Usp9x,A24 vs untreated (UT),0.4076
same,avg_logFC Zfp683,A24 vs untreated (UT),−0.4214
same,avg_logFC mmu-mir-6236,A24 vs untreated (UT),0.7875
same,avg_logFC mt-Atp6,A24 vs untreated (UT),−0.5737
same,avg_logFC mt-Co1,A24 vs untreated (UT),−1.433
same,avg_logFC mt-Co2,A24 vs untreated (UT),−1.397
same,avg_logFC mt-Co3,A24 vs untreated (UT),−1.167
same,avg_logFC mt-Cytb,A24 vs untreated (UT),−1.571
same,avg_logFC mt-Nd1,A24 vs untreated (UT),−1.42
same,avg_logFC mt-Nd2,A24 vs untreated (UT),−1.242
same,avg_logFC mt-Nd4,A24 vs untreated (UT),−1.957
same,avg_logFC mt-Nd5,A24 vs untreated (UT),−1.384
same,avg_logFC mt-Nd6,A24 vs untreated (UT),−0.4779
same,avg_logFC mt-Rnr1,A24 vs untreated (UT),−0.4562
same,avg_logFC mt-Rnr2,A24 vs untreated (UT),−0.7783
same,avg_logFC mt-Tm,A24 vs untreated (UT),0.2847
same,avg_logFC mt-Tq,A24 vs untreated (UT),0.2879
same,avg_logFC n-R5-8s1,A24 vs untreated (UT),1.253
same,avg_logFC Abcb4,[1],0.4425
same,avg_logFC Abcd2,[1],0.2813
same,avg_logFC Abhd14b,[1],0.4059
same,avg_logFC Acad11,[1],0.3851
same,avg_logFC Agt,[1],0.5795
same,avg_logFC Ahcy,[1],0.34
same,avg_logFC Ahsg,[1],0.3592
same,avg_logFC Aldh9a1,[1],0.3826
same,avg_logFC Aldob,[1],0.4375
same,avg_logFC Ambp,[1],0.286
same,avg_logFC Amy1,[1],0.4216
same,avg_logFC Angptl3,[1],0.6111
same,avg_logFC Apoa5,[1],0.4484
same,avg_logFC Apoc2,[1],0.8639
same,avg_logFC Apoc3,[1],0.407
same,avg_logFC Apoe,[1],0.5049
same,avg_logFC Apoh,[1],0.4628
same,avg_logFC Atp5b,[1],0.3281
same,avg_logFC Atp5h,[1],0.5978
same,avg_logFC Bfar,[1],0.308
same,avg_logFC Bnip3,[1],0.462
same,avg_logFC Cdo1,[1],0.3971
same,avg_logFC Cebpb,[1],0.3684
same,avg_logFC Ces1b,[1],0.4829
same,avg_logFC Ces1c,[1],0.5488
same,avg_logFC Chchd10,[1],0.7517
same,avg_logFC Cox5a,[1],0.4197
same,avg_logFC Cox8a,[1],0.552
same,avg_logFC Cp,[1],0.4274
same,avg_logFC Cyp4a10,[1],0.9326
same,avg_logFC Cyp4a14,[1],1.281
same,avg_logFC Dbp,[1],0.2896
same,avg_logFC Ddb1,[1],0.3544
same,avg_logFC Decr1,[1],0.5669
same,avg_logFC Decr2,[1],0.4129
same,avg_logFC Ech1,[1],0.418
same,avg_logFC Echs1,[1],0.4649
same,avg_logFC Ephx2,[1],0.3869
same,avg_logFC F2,[1],0.3952
same,avg_logFC F10,[1],0.3927
same,avg_logFC F12,[1],0.388
same,avg_logFC Fah,[1],0.3913
same,avg_logFC Fcgrt,[1],0.4084
same,avg_logFC Fkbp5,[1],0.2572
same,avg_logFC Fth1,[1],0.375
same,avg_logFC Gabarap,[1],0.4014
same,avg_logFC Gc,[1],0.2979
same,avg_logFC Gltscr2,[1],0.3432
same,avg_logFC Gm6484,[1],0.4108
same,avg_logFC Gm23935,[1],0.4738
same,avg_logFC Grn,[1],0.431
same,avg_logFC Gstt3,[1],0.3384
same,avg_logFC Gys2,[1],0.4231
same,avg_logFC Hdac11,[1],0.3557
same,avg_logFC Herpud1,[1],0.6044
same,avg_logFC Hmgcl,[1],0.5501
same,avg_logFC Hmgcs2,[1],0.7687
same,avg_logFC Hpx,[1],0.3851
same,avg_logFC Hrg,[1],0.5316
same,avg_logFC Hsd17b13,[1],0.6221
same,avg_logFC Hspa8,[1],0.4107
same,avg_logFC Khk,[1],0.5202
same,avg_logFC Lcat,[1],0.5053
same,avg_logFC Lims2,[1],0.3761
same,avg_logFC Lpin1,[1],0.515
same,avg_logFC Mat1a,[1],0.7753
same,avg_logFC Mfsd2a,[1],0.6614
same,avg_logFC Mlycd,[1],0.4378
same,avg_logFC Ndrg2,[1],0.3482
same,avg_logFC Nr1i3,[1],0.4759
same,avg_logFC Oaf,[1],0.5021
same,avg_logFC P4hb,[1],0.2981
same,avg_logFC Pabpc1,[1],0.4782
same,avg_logFC Plin5,[1],0.3985
same,avg_logFC Pnpla2,[1],0.3465
same,avg_logFC Prodh2,[1],0.5055
same,avg_logFC Rbp4,[1],0.3942
same,avg_logFC Rdh7,[1],0.4684
same,avg_logFC Reep6,[1],0.6233
same,avg_logFC Retsat,[1],0.7096
same,avg_logFC Rgs16,[1],0.4545
same,avg_logFC Rpl38,[1],0.3322
same,avg_logFC Scand1,[1],0.2707
same,avg_logFC Serpina3m,[1],0.4034
same,avg_logFC Serpina1d,[1],0.3053
same,avg_logFC Serping1,[1],0.5777
same,avg_logFC Slc25a10,[1],0.4313
same,avg_logFC Slc25a20,[1],0.3875
same,avg_logFC Slc25a47,[1],0.6175
same,avg_logFC Slc27a5,[1],0.4062
same,avg_logFC Slc37a4,[1],0.4461
same,avg_logFC Slco1a4,[1],0.5091
same,avg_logFC Snord118,[1],0.4771
same,avg_logFC St3gal5,[1],0.5549
same,avg_logFC Sult1a1,[1],0.4827
same,avg_logFC Syvn1,[1],0.3041
same,avg_logFC Tcea3,[1],0.3938
same,avg_logFC Tef,[1],0.3394
same,avg_logFC Tmbim4,[1],0.3693
same,avg_logFC Tmbim6,[1],0.3713
same,avg_logFC Ttc36,[1],0.5638
same,avg_logFC Ttpa,[1],0.4431
same,avg_logFC Ttr,[1],0.4225
same,avg_logFC Ugt2b5,[1],0.4388
same,avg_logFC Vnn3,[1],0.3008
same,avg_logFC Vtn,[1],0.5228
same,avg_logFC Yipf3,[1],0.2785
same,Gstm3 pct.1,A48 (APAP 48 h) hepatocytes,0.279
same,Pim3 pct.1,A48 (APAP 48 h) hepatocytes,0.845
same,Gstm3 avg_logFC,[2],−0.6277
same,Pim3 avg_logFC,[2],0.2884
same,avg_logFC Acsl1,A48A96 vs untreated (UT),0.2563
same,avg_logFC Aldh3a2,A48A96 vs untreated (UT),0.3079
same,avg_logFC Atp1a1,A48A96 vs untreated (UT),0.2628
same,avg_logFC Atp5d,A48A96 vs untreated (UT),0.2501
same,avg_logFC C6,A48A96 vs untreated (UT),−0.267
same,avg_logFC Ces1e,A48A96 vs untreated (UT),0.2656
same,avg_logFC Ctsd,A48A96 vs untreated (UT),0.2579
same,avg_logFC Cyp4a12a,A48A96 vs untreated (UT),−0.2771
same,avg_logFC Ech1,A48A96 vs untreated (UT),0.2505
same,avg_logFC F5,A48A96 vs untreated (UT),0.3006
same,avg_logFC F9,A48A96 vs untreated (UT),0.2568
same,avg_logFC F12,A48A96 vs untreated (UT),0.2567
same,avg_logFC Fcgrt,A48A96 vs untreated (UT),0.2585
same,avg_logFC Fn1,A48A96 vs untreated (UT),0.2925
same,avg_logFC Ftl1,A48A96 vs untreated (UT),−0.2988
same,avg_logFC Gabarapl1,A48A96 vs untreated (UT),0.2607
same,avg_logFC Gclm,A48A96 vs untreated (UT),0.2588
same,avg_logFC Glul,A48A96 vs untreated (UT),0.3795
same,avg_logFC Gm4076,A48A96 vs untreated (UT),−0.3083
same,avg_logFC Gm20594,A48A96 vs untreated (UT),−0.3566
same,avg_logFC Gsta2,A48A96 vs untreated (UT),0.2522
same,avg_logFC Hadha,A48A96 vs untreated (UT),0.2509
same,avg_logFC Hal,A48A96 vs untreated (UT),0.2801
same,avg_logFC Hgfac,A48A96 vs untreated (UT),0.2522
same,avg_logFC Hsd17b4,A48A96 vs untreated (UT),0.2532
same,avg_logFC Ifitm3,A48A96 vs untreated (UT),−0.2543
same,avg_logFC Inmt,A48A96 vs untreated (UT),−0.2532
same,avg_logFC Lpgat1,A48A96 vs untreated (UT),0.2576
same,avg_logFC Lpin1,A48A96 vs untreated (UT),0.2775
same,avg_logFC Ndufb2,A48A96 vs untreated (UT),0.2516
same,avg_logFC Park7,A48A96 vs untreated (UT),0.2515
same,avg_logFC Pck1,A48A96 vs untreated (UT),0.2719
same,avg_logFC Pipox,A48A96 vs untreated (UT),0.2725
same,avg_logFC Ppp2r5a,A48A96 vs untreated (UT),0.2509
same,avg_logFC Ptms,A48A96 vs untreated (UT),0.2678
same,avg_logFC Rarres1,A48A96 vs untreated (UT),−0.2919
same,avg_logFC Rpl32,A48A96 vs untreated (UT),−0.2847
same,avg_logFC Rpl41,A48A96 vs untreated (UT),−0.295
same,avg_logFC Sardh,A48A96 vs untreated (UT),0.2692
same,avg_logFC Sdhd,A48A96 vs untreated (UT),0.3208
same,avg_logFC Sds,A48A96 vs untreated (UT),0.2973
same,avg_logFC Sec61a1,A48A96 vs untreated (UT),0.2637
same,avg_logFC Serpina12,A48A96 vs untreated (UT),−0.3247
same,avg_logFC Sfxn1,A48A96 vs untreated (UT),0.3049
same,avg_logFC Slc2a2,A48A96 vs untreated (UT),0.2723
same,avg_logFC Slc37a4,A48A96 vs untreated (UT),0.2683
same,avg_logFC Tmem106b,A48A96 vs untreated (UT),0.2704
same,avg_logFC Ubb,A48A96 vs untreated (UT),−0.2644
same,avg_logFC Ubxn4,A48A96 vs untreated (UT),0.2503
same,avg_logFC Upb1,A48A96 vs untreated (UT),0.2504
same,avg_logFC Usmg5,A48A96 vs untreated (UT),0.2787
same,avg_logFC mmu-mir-6236,A48A96 vs untreated (UT),−0.4297
same,avg_logFC mt-Atp6,A48A96 vs untreated (UT),−0.3234
same,C6 A48logFC,A48 vs UT,−0.267
same,Glul A48logFC,A48 vs UT,0.3795
same,Gm20594 A48logFC,A48 vs UT,−0.3566
same,Rps8 A48logFC,A48 vs UT,−0.2746
